Laboratory results reported in patent US20190282616A1, “MACROPHAGES REDIRECT PHAGOCYTOSIS BY NON-PROFESSIONAL PHAGOCYTES AND INFLUENCE INFLAMMATION” (University of Virginia Patent Foundation, priority 2016, published 2019).

How the values were obtained:
[1] = tested on: LR73 cells; experiment: In vitro engulfment assay: apoptotic thymocyte uptake by LR73 cells; format: cell-based, hamster
Procedure: LR73, SVEC-40, BEAS-2B, and 16HBE14o-cells were seeded in a 24 well plate. Thymocytes were isolated from 4-6 week old mice and induced to undergo apoptosis with dexamethasone. Thymocytes or prepared microvesicles were then stained with either CypHer5E (GE Healthcare, PA15401) or TAMRA (Invitrogen, C-1171). LR73 and SVEC-40 cells were incubated with apoptotic thymocytes at a 1:10 phagocyte to target ratio, BEAS-2B at a 1:5 phagocyte to target ratio, and 16HBE14o—at a 1:20 phagocyte to target ratio for 2 hours. Mouse IGF-I (Sigma-Aldrich), human IGF-I (Sigma-Aldrich), human IGF-II (Sigma-Aldrich) were added to the phagocytes at the same time as addition of apoptotic targets. For IGFBP3 studies, IGFBP3 (Sigma-Aldrich) was added to media or supernatant from J774 cells for one hour to allow IGFBP3 to bind to any available IGF-I, then the mix is added to phagocytes along with apoptotic targets. For all pharmacological studies, phagocytes were pre-incubated with the compounds listed below for one hour prior to addition of apoptotic targets: cytochalasin D (Sigma-Aldrich, C8273, 1 μM), Latrunculin A (Tocris, 3973, 150 nM), CK-666 (Tocris, 3950, 25 μM-100 μM), OSI-906 (Selleckchem, S1091, 5 nM-40 nM), NVP-AEW541 (Selleckchem, S1034, 25 nM-100 nM), Rapamycin (Sigma-Aldrich, R0395, […]), MK-2206 2HCl (Selleckchem, S1078, 10 nM-1 U0126-EtOH (Selleckchem, S1102, […]), Wortmannin (Sigma-Aldrich, W1628, 50 nM-200 nM), Y27632 (Calbiochem, 688000, 3.75 μM-15 μM), or GSK269962 (Tocris, 4009, 80 nM-2 μM). […] Targets were then washed off three times with PBS, and the cells were dissociated from the plate with trypsin and the engulfment assessed by flow cytometry.

[2] = tested on: BEAS-2B cells; experiment: In vitro engulfment assay: apoptotic cell uptake by BEAS-2B cells; format: cell-based; conditions: human IGF-I
Procedure: (§1) LR73, SVEC-40, BEAS-2B, and 16HBE14o-cells were seeded in a 24 well plate. Thymocytes were isolated from 4-6 week old mice and induced to undergo apoptosis with dexamethasone. Thymocytes or prepared microvesicles were then stained with either CypHer5E (GE Healthcare, PA15401) or TAMRA (Invitrogen, C-1171). LR73 and SVEC-40 cells were incubated with apoptotic thymocytes at a 1:10 phagocyte to target ratio, BEAS-2B at a 1:5 phagocyte to target ratio, and 16HBE14o—at a 1:20 phagocyte to target ratio for 2 hours. Mouse IGF-I (Sigma-Aldrich), human IGF-I (Sigma-Aldrich), human IGF-II (Sigma-Aldrich) were added to the phagocytes at the same time as addition of apoptotic targets. For IGFBP3 studies, IGFBP3 (Sigma-Aldrich) was added to media or supernatant from J774 cells for one hour to allow IGFBP3 to bind to any available IGF-I, then the mix is added to phagocytes along with apoptotic targets. […] Targets were then washed off three times with PBS, and the cells were dissociated from the plate with trypsin and the engulfment assessed by flow cytometry.

[3] = tested on: J774 macrophage cells; experiment: Apoptotic thymocyte phagocytosis by J774 macrophage cells; format: cell-based; conditions: even with supra-physiological concentrations of IGF-1, every time point
[4] = tested on: phosphatidylserine (PtdSer) on apoptotic thymocytes; experiment: Annexin V binding to apoptotic thymocytes; format: cell-based, mouse; conditions: n=6
[5] = tested on: 16HBE14o- human airway epithelial cells; experiment: In vitro engulfment assay: apoptotic thymocyte uptake by 16HBE14o- cells; format: cell-based; conditions: IGF-1 treatment
Procedure: as §1

[6] = tested on: IGF-1R, Akt and Erk1/2 phosphorylation in LR73 cells; experiment: Immunoblotting of signaling in LR73 cells; format: cell-based, hamster; conditions: LR73 cells, IGF-1 treatment
Procedure: LR73, J774, or BEAS-2B cells were seeded in a 60 mm dish at a concentration of 5×10^5. […] Cells were lysed in RIPA buffer and used in Western blots. The blots were probed for phospho-Erk1/2 (Cell Signaling Technology, #4370), phospho-Akt (Cell Signaling Technology, #4060), phospho-IGF-1R (Cell Signaling, #3024), total Erk2 (Santa Cruz Biotechnology, #sc-154-G), total Akt (Cell Signaling Technology, #4691), total IGF-1R (Cell Signaling, #9750), and anti-B-actin-HRP (Sigma-Aldrich, #A3854) followed by chemiluminescence detection.

[7] = tested on: YFP airway epithelial cells; experiment: In vivo engulfment assay: airway epithelial cells; design: species or system mouse; conditions: 1 μg IGF-1 intranasally
Procedure: CCSP-Cre/YFP mice were administered PBS or 1 μg of IGF-1 intranasally. One hour later, 100 million CypHer5E-labelled apoptotic thymocytes with or without IGF-I were injected intranasally for 3.5 hours. The BAL fluid was harvested and the lungs excised, minced, and digested into a single cell suspension. The cells were then stained with appropriate markers: CD11c and Siglec F for alveolar macrophage markers and EpCam (along with YFP expression) for airway epithelial cells and analyzed by flow cytometry to assess apoptotic cell uptake by the airway epithelial cells and the alveolar macrophages.

[8] = tested on: IC-21 cells; experiment: Apoptotic thymocyte engulfment by IC-21 cells; format: cell-based; conditions: indicated concentrations of mouse IGF-1 or human insulin
[9] = tested on: LR73 cells; experiment: In vitro engulfment assay: apoptotic thymocyte uptake by LR73 cells; format: cell-based, hamster; conditions: LR73 cells pretreated with IGF-I, washed

## insulin-like growth factor I [IGF-1]
[1]; data not shown
  engulfment with IGF-1 added simultaneously with apoptotic cells: inhibited engulfment similar to pre-treated cells
[1]; soluble mediator alone, IGF-I at concentrations reported in serum (100-600 ng/mL), other factors over a range of concentrations
  apoptotic cell uptake (engulfment) by LR73 cells: significantly dampened apoptotic cell uptake
[1]; supernatant of J774 cells treated with rIL-4 for 24 hrs
  apoptotic cell uptake by LR73 cells with macrophage produced IGF-1: could also suppress apoptotic cell uptake by LR73 cells
[2]
  apoptotic cell uptake by BEAS-2B cells: engulfment dampening effect of IGF-1 was also seen
[3]
  corpse uptake by J774 cells: did not affect corpse uptake
[4]
  masking of phosphatidylserine on apoptotic cells (Annexin V binding): not due to masking phosphatidylserine
[5]
  apoptotic thymocyte uptake by 16HBE14o- cells: engulfment dampening effect of IGF-1 was also seen
[6]
  phosphorylation of Akt: elicited phosphorylation of Akt
[7]; apoptotic thymocytes
  apoptotic cell engulfment by YFP airway epithelial cells in vivo: decreased apoptotic cell engulfment
[7]; liposomes
  liposome uptake by YFP airway epithelial cells in vivo: enhanced lipo some uptake
[8]
  corpse uptake by IC-21 cells: did not affect corpse uptake
[9]
  engulfment after washing phagocytes pre-treated with IGF-1 (reversibility): near complete restoration of engulfment
